# Reference: patent US20180021460A1, “PROBES AND METHODS FOR DETECTING AMYLOIDOGENIC PROTEINS” (Academia Sinica, priority 2016, published 2018)
# Non-standard residues stand in square brackets, D forms with d. No end group written: not given here. o‑nitrobenzyl photocleavable linker = o-nitrobenzyl photocleavable moiety placed between the 8R peptide and the amyloidogenic sequence; Alexa568 = Alexa568 fluorophore linked to the cysteine residue
# Tests used:
# [1] = Transmission electron microscopy (vesicle size, fibril formation); type: physicochemical; details: upon illumination 335-379 nm, 8.24 mW/cm^2, 3 mins
# Experimental: Transmission Electron Microscopy
# The resulting aliquots of peptide solutions (5 μL) were applied on glow-charged 300 mesh formvar- and carbon-coated copper grids stained with 1% uranyl acetate. After drying overnight, all samples were analyzed using a JEM-2011 electron microscope (JEOL, Japan).
# EGFP-TDP-43 in N2A cells [2] = experiment: EGFP-TDP-43 aggregation / co-localization in JHR2-treated N2A cells (confocal); type: cell-based, mouse
# Experimental: (§1) Cell Maintenance, Peptide Treatment, and Photolysis
# (§2) Mouse neuroblastoma N2A cells (generous gift from Dr. Yijuang Chern, IBMS, Academia Sinica) were cultured in Dulbecco's modified Eagle's medium (DMEM) (Invitrogen) supplemented with 2 mM glutamine, 10% heat-inactivated fetal bovine serum and 100 U/mL penicillin-streptomycin (Invitrogen) at 37° C. in a humidified atmosphere with 5% CO2. Before peptide incubation, cells were treated with 5-aminoimidazole-4-carboxamide-1-β-D-ribofuranoside (AICAR) to induce the cytoplasmic mislocalization of TDP-43. JHR2 was prepared by dissolving the lyophilized powder in the cell culture medium. Cells were incubated with polypeptide-containing medium for 3 hr, washed, and UV-illuminated (mercury lamp with 345-385 nm bandpass filter, average power: 8.24 mW/cm^2).
# Confocal and Super-Resolution Fluorescence Microscopy with Airy Scan
# (§3) For EGFP-TDP-43 expression, 2×10^5 of N2A cells in a 30-mm square coverslip were transfected with 1 μg of full-length TDP-43-EGFP plasmid with TurboFect Transfection Reagent (Thermo Scientific) according to the manufacturer's protocol. After peptide and photolysis treatment as described above, cells were incubated for an additional 24 hr and then fixed with 4 paraformaldehyde. Confocal images were captured with LSM 880 and super resolution imaging was performed with Airy Scan (Zeiss, Germany). […]
# [3] = system: endogenous TDP-43 in N2A cells; experiment: Endogenous TDP-43 aggregates in N2A cells (immunostaining, high content analysis); type: cell-based, mouse; details: pinhole-confined UV light spot, 24 hr incubation
# Experimental: as §1, §2, §3
# EGFP-TDP-43 in N2A cells [4] = experiment: Time-lapse living cell fluorescence microscopy and Annexin V staining; type: cell-based, mouse
# Experimental: Time-lapse Living Fluorescence Cell Microscopy and Annexin V Staining
# N2A cells (5×10^4) were transfected with 1 μg of full-length TDP-43-EGFP in a sterilized 35 mm μ-Dish (Ibidi, Martinsried, Germany). The living cells were imaged with a Nikon TiE inverted microscope equipped with a Tokai-hit constant humidity chamber (37° C., 5% CO2) for 25 hr. Hoechst, EGFP, Aleax Fluor 568 and Cy5 cube filters were used to collect the fluorescence emission accordingly. Cellular images were captured with an Andor iXon3 888 back-illuminated high sensitivity EMCCD camera. Images were analyzed and quantified using Nikon NIS element software. After 24 hr of peptide treatment, the cells were washed twice with PBS, washed once with 1× Annexin V binding buffer, incubated with Annexin V-Cy5 (BioVision, USA) at room temperature and imaged.
# EGFP-TDP-43 in N2A cells [5] = experiment: Microinjection of probe into N2A cells and irradiation; type: cell-based, mouse; details: N2A cells microinjected, data not shown
# Excerpt: The glass microneedles for microinjection (1B100-F4, World Precision Instruments, USA) were pulled with a PC-10 capillary puller (Narishige, Japan). […] A Picospriterzer III microinjection system and a joystick micromanipulator (Narishige, Japan) mounted with a stage-side of a microscope (IX-71, Olympus, Japan) were used for delivering the peptide solution into the cytosol of N2A cells. After microinjection (injection pressure, 80 hPa; injection time, 100 msec; compensation pressure, 20 hPa), cells were subsequently rinsed with 2 mL of L-15 medium supplemented with 10% FBS for 1 hr of recovery.
# [6] = system: Ran (RAS-related nuclear protein); experiment: Localization of endogenous Ran in JHR2-treated cells; type: cell-based
# Experimental: as §2
# For EGFP-TDP-43 expression, 2×10^5 of N2A cells in a 30-mm square coverslip were transfected with 1 μg of full-length TDP-43-EGFP plasmid with TurboFect Transfection Reagent (Thermo Scientific) according to the manufacturer's protocol. After peptide and photolysis treatment as described above, cells were incubated for an additional 24 hr and then fixed with 4 paraformaldehyde. Confocal images were captured with LSM 880 and super resolution imaging was performed with Airy Scan (Zeiss, Germany). For immunostaining, anti-TDP-43 antibody (Abcam, ab104223) and anti-Ran (Abcam, ab155103) antibody were used, respectively.
# TDP-43 and importin-α1 = experiment: Localization of endogenous TDP-43 and importin-α1 in JHR2-treated cells; type: cell-based
substance,measurement,setting,value
JHR2: Same peptide probe as JHR1 with Alexa568 fluorophore linked to the cysteine residue instead of tert-butyl thiol (RRRRRRRR[o‑nitrobenzyl photocleavable linker]MGGGMNFGAFSINPAMC(Alexa568)-NH2),time to detection of massive fibrils (TEM),[1],≤ 4 h
same,aggregates of JHR2 and EGFP-TDP-43 after irradiation,"EGFP-TDP-43 in N2A cells [2]; AICAR pretreated, 24 hrs after non-focused light 335-379 nm, 8.24 mW/cm^2, 3 mins",developed pronounced aggregates and/or inclusion bodies that were largely co-localized in the cytosol
same,cell penetration,"EGFP-TDP-43 in N2A cells [2]; JHR2 1 μM, 3 hr",may quickly penetrate cells
same,seeding of endogenous TDP-43 cytosolic aggregation within confined illuminated area,[3],selectively induced the JHR2 amyloid to “seed” endogenous TDP-43 cytosolic aggregation
same,time at which EGFP-TDP-43 puncta became detectable,"EGFP-TDP-43 in N2A cells [4]; N2A cells expressing EGFP-TDP-43, with JHR2, after illumination","Twenty hours after illumination, the EGFP-TDP-43 puncta became detectable"
same,apoptosis by Annexin V staining,"EGFP-TDP-43 in N2A cells [4]; N2A cells with EGFP-TDP-43 inclusion bodies, end of time course 25 hr",on the verge of apoptosis
same,onset of EGFP-TDP43 aggregation after microinjection and irradiation,EGFP-TDP-43 in N2A cells [5],4 h
same,onset of clustering of JHR2 after microinjection and irradiation,EGFP-TDP-43 in N2A cells [5],2 h
same,Ran protein miss-localized into the cytoplasm,[6]; +JHR2+Light,> 90%
same,"Ran localization, probe-treated only (no light)",[6]; +JHR2−Light,mainly resided in the nucleus
same,TDP-43 and importin-α1 localization under photoactivation,TDP-43 and importin-α1; +JHR2+Light,translocated from the nucleus to cytosol and formed aggregates
same,"importin-α1 localization, probe-treated only (no light)",TDP-43 and importin-α1; +JHR2−Light,mainly remained in the nucleus
